Measurements as given in PubChem BioAssay (NCI).
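Exposure lasted 48 hours, with cells grown in 96-well plates and compounds tested at five concentrations. Abbreviation: GI50, concentration required for 50% inhibition of growth. TGI is the concentration that stops growth completely.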

What was measured:
Experiment in all cases: NCI anticancer screen, dose series, 48 h; in the data active = GI50 below about 0.43 µM; inactive = the rest
CAKI-1 renal = test system: CAKI-1 renal
MDA-MB-231 breast = test system: MDA-MB-231 breast
UO-31 renal = test system: UO-31 renal
UACC-257 melanoma = test system: UACC-257 melanoma
MCF7 breast = test system: MCF7 breast
M14 melanoma = test system: M14 melanoma
BT-549 breast = test system: BT-549 breast
ACHN renal = test system: ACHN renal
HCT-15 colon = test system: HCT-15 colon
TK-10 renal = test system: TK-10 renal
SW-620 colon = test system: SW-620 colon
T-47D breast = test system: T-47D breast
SF-539 CNS = test system: SF-539 CNS
HCT-116 colon = test system: HCT-116 colon
SNB-19 CNS = test system: SNB-19 CNS
NCI-H23 lung = test system: NCI-H23 lung
NCI/ADR-RES ovarian = test system: NCI/ADR-RES ovarian
SR leukemia = test system: SR leukemia
KM12 colon = test system: KM12 colon
LOX IMVI melanoma = test system: LOX IMVI melanoma
K-562 leukemia = test system: K-562 leukemia
HCC-2998 colon = test system: HCC-2998 colon
SK-OV-3 ovarian = test system: SK-OV-3 ovarian
IGROV1 ovarian = test system: IGROV1 ovarian
SF-295 CNS = test system: SF-295 CNS
A549 NSCLC = test system: A549 NSCLC
CCRF-CEM leukemia = test system: CCRF-CEM leukemia
OVCAR-8 ovarian = test system: OVCAR-8 ovarian
SN12C renal = test system: SN12C renal
HT29 colon = test system: HT29 colon
NCI-H460 lung = test system: NCI-H460 lung
SK-MEL-28 melanoma = test system: SK-MEL-28 melanoma
UACC-62 melanoma = test system: UACC-62 melanoma
U251 CNS = test system: U251 CNS
OVCAR-4 ovarian = test system: OVCAR-4 ovarian
A498 renal = test system: A498 renal
OVCAR-5 ovarian = test system: OVCAR-5 ovarian
NCI-H226 lung = test system: NCI-H226 lung
HOP-62 NSCLC = test system: HOP-62 NSCLC
HS 578T breast = test system: HS 578T breast
RXF 393 renal = test system: RXF 393 renal
786-0 renal = test system: 786-0 renal
COLO 205 colon = test system: COLO 205 colon
DU-145 prostate = test system: DU-145 prostate
NCI-H522 lung = test system: NCI-H522 lung
HL-60(TB) leukemia = test system: HL-60(TB) leukemia
SF-268 CNS = test system: SF-268 CNS
SK-MEL-5 melanoma = test system: SK-MEL-5 melanoma
EKVX NSCLC = test system: EKVX NSCLC
PC-3 prostate = test system: PC-3 prostate
MOLT-4 leukemia = test system: MOLT-4 leukemia
MALME-3M melanoma = test system: MALME-3M melanoma
OVCAR-3 ovarian = test system: OVCAR-3 ovarian
MDA-MB-435 = test system: MDA-MB-435
RPMI-8226 leukemia = test system: RPMI-8226 leukemia
SNB-75 CNS = test system: SNB-75 CNS
SK-MEL-2 melanoma = test system: SK-MEL-2 melanoma
HOP-92 NSCLC = test system: HOP-92 NSCLC

O=C(Nc1cc(Cl)ccc1O)c1cccc(NC2=C(Cl)C(=O)N(Cc3ccccc3)C2=O)c1
38.8 µM: TGI (OVCAR-8 ovarian)
32.1 µM: TGI (LOX IMVI melanoma) | TGI (HCC-2998 colon)
43.4 µM: TGI (NCI/ADR-RES ovarian)
inactive: GI50 (CAKI-1 renal) 22.5 µM | GI50 (MDA-MB-231 breast) 16.8 µM | GI50 (UO-31 renal) 38.3 µM | GI50 (UACC-257 melanoma) 23.8 µM | GI50 (MCF7 breast) 13.3 µM | GI50 (M14 melanoma) 17.8 µM | GI50 (BT-549 breast) 26.7 µM | GI50 (ACHN renal) 35.6 µM | GI50 (HCT-15 colon) 13.3 µM | GI50 (TK-10 renal) 37.3 µM | GI50 (SW-620 colon) 21.3 µM | GI50 (T-47D breast) 29 µM | GI50 (SF-539 CNS) 27.2 µM | GI50 (HCT-116 colon) 17.2 µM | GI50 (SNB-19 CNS) 48.4 µM | GI50 (NCI-H23 lung) 16.1 µM | GI50 (NCI/ADR-RES ovarian) 20.7 µM | GI50 (SR leukemia) 4.8 µM | GI50 (KM12 colon) 21.4 µM | GI50 (LOX IMVI melanoma) 15.7 µM | GI50 (K-562 leukemia) 15.2 µM | GI50 (HCC-2998 colon) 17 µM | GI50 (SK-OV-3 ovarian) 69.1 µM | GI50 (IGROV1 ovarian) 35.4 µM | GI50 (SF-295 CNS) 20.5 µM | GI50 (A549 NSCLC) 36.9 µM | GI50 (CCRF-CEM leukemia) 2.14 µM | GI50 (OVCAR-8 ovarian) 14.5 µM | GI50 (SN12C renal) 16 µM | GI50 (HT29 colon) 35.9 µM | GI50 (NCI-H460 lung) 18.6 µM | GI50 (SK-MEL-28 melanoma) 42.4 µM | GI50 (UACC-62 melanoma) 31.7 µM | GI50 (U251 CNS) 18.2 µM | GI50 (OVCAR-4 ovarian) 55.5 µM | GI50 (A498 renal) 25.8 µM | GI50 (OVCAR-5 ovarian) 45.8 µM | GI50 (NCI-H226 lung) 17.4 µM | GI50 (HOP-62 NSCLC) 26.7 µM | GI50 (HS 578T breast) 20.9 µM | GI50 (RXF 393 renal) 17.4 µM | GI50 (786-0 renal) 22.7 µM | GI50 (COLO 205 colon) 30.9 µM | GI50 (DU-145 prostate) 60.7 µM | GI50 (NCI-H522 lung) 11.2 µM | GI50 (HL-60(TB) leukemia) 15.9 µM | GI50 (SF-268 CNS) 18.5 µM | GI50 (SK-MEL-5 melanoma) 17 µM | GI50 (EKVX NSCLC) > 100 µM | GI50 (PC-3 prostate) 19.2 µM | GI50 (MOLT-4 leukemia) 3.24 µM | GI50 (MALME-3M melanoma) 30.5 µM | GI50 (OVCAR-3 ovarian) 23.4 µM | GI50 (MDA-MB-435) 18.7 µM
36.6 µM: TGI (NCI-H226 lung)
58.9 µM: TGI (SF-539 CNS)
22.8 µM: TGI (SR leukemia)
27.6 µM: TGI (HCT-15 colon)
11.5 µM: TGI (CCRF-CEM leukemia)
15.8 µM: TGI (MOLT-4 leukemia)
50.9 µM: TGI (786-0 renal)
31 µM: TGI (HCT-116 colon)
31.5 µM: TGI (SK-MEL-5 melanoma)
95.5 µM: TGI (TK-10 renal)
38.6 µM: TGI (MDA-MB-435)
38.2 µM: TGI (SF-268 CNS)
86.4 µM: TGI (MALME-3M melanoma)
47.6 µM: TGI (SF-295 CNS)
52 µM: TGI (KM12 colon)
36.9 µM: TGI (MCF7 breast)
26.3 µM: TGI (NCI-H522 lung)
38.7 µM: TGI (HL-60(TB) leukemia)
49.9 µM: TGI (SW-620 colon) | TGI (HS 578T breast)
80.5 µM: TGI (BT-549 breast)
68.2 µM: TGI (UACC-257 melanoma)
45.1 µM: TGI (RXF 393 renal)
33.6 µM: TGI (NCI-H23 lung) | TGI (SN12C renal)
38.5 µM: TGI (K-562 leukemia)
40.3 µM: TGI (MDA-MB-231 breast)
67.3 µM: TGI (HOP-62 NSCLC)
68 µM: TGI (CAKI-1 renal)
> 100 µM: TGI (UO-31 renal) | TGI (ACHN renal) | TGI (T-47D breast) | TGI (SNB-19 CNS) | TGI (SK-OV-3 ovarian) | TGI (IGROV1 ovarian) | TGI (A549 NSCLC) | TGI (HT29 colon) | TGI (SK-MEL-28 melanoma) | TGI (UACC-62 melanoma) | TGI (OVCAR-4 ovarian) | TGI (A498 renal) | TGI (OVCAR-5 ovarian) | TGI (COLO 205 colon) | TGI (DU-145 prostate) | TGI (EKVX NSCLC)
37.3 µM: TGI (U251 CNS)
46.1 µM: TGI (PC-3 prostate)
40.9 µM: TGI (NCI-H460 lung)
54.4 µM: TGI (OVCAR-3 ovarian)
36.7 µM: TGI (M14 melanoma)

O=C(Nc1ccc(Nc2ccncc2)cc1)c1ccc(Nc2ccnc3ccc([N+](=O)[O-])cc23)cc1
> 100 µM: TGI (CAKI-1 renal) | TGI (MDA-MB-231 breast) | TGI (UACC-257 melanoma) | TGI (MCF7 breast) | TGI (M14 melanoma) | TGI (BT-549 breast) | TGI (ACHN renal) | TGI (HCT-15 colon) | TGI (RPMI-8226 leukemia) | TGI (TK-10 renal) | TGI (SNB-75 CNS) | TGI (SW-620 colon) | TGI (T-47D breast) | TGI (SF-539 CNS) | TGI (HCT-116 colon) | TGI (SNB-19 CNS) | TGI (NCI-H23 lung) | TGI (NCI/ADR-RES ovarian) | TGI (SR leukemia) | TGI (KM12 colon) | TGI (LOX IMVI melanoma) | TGI (K-562 leukemia) | TGI (HCC-2998 colon) | TGI (SK-OV-3 ovarian) | TGI (A549 NSCLC) | TGI (CCRF-CEM leukemia) | TGI (SK-MEL-2 melanoma) | TGI (OVCAR-8 ovarian) | TGI (SN12C renal) | TGI (HOP-92 NSCLC) | TGI (HT29 colon) | TGI (NCI-H460 lung) | TGI (SK-MEL-28 melanoma) | TGI (UACC-62 melanoma) | TGI (U251 CNS) | TGI (OVCAR-4 ovarian) | TGI (A498 renal) | TGI (OVCAR-5 ovarian) | TGI (NCI-H226 lung) | TGI (HOP-62 NSCLC) | TGI (HS 578T breast) | TGI (786-0 renal) | TGI (COLO 205 colon) | TGI (DU-145 prostate) | TGI (NCI-H522 lung) | TGI (HL-60(TB) leukemia) | TGI (SF-268 CNS) | TGI (SK-MEL-5 melanoma) | TGI (EKVX NSCLC) | TGI (PC-3 prostate) | TGI (MOLT-4 leukemia) | TGI (OVCAR-3 ovarian) | TGI (MDA-MB-435)
inactive: GI50 (CAKI-1 renal) > 100 µM | GI50 (MDA-MB-231 breast) 78.2 µM | GI50 (UACC-257 melanoma) > 100 µM | GI50 (MCF7 breast) > 100 µM | GI50 (M14 melanoma) > 100 µM | GI50 (BT-549 breast) > 100 µM | GI50 (ACHN renal) > 100 µM | GI50 (HCT-15 colon) > 100 µM | GI50 (RPMI-8226 leukemia) > 100 µM | GI50 (TK-10 renal) > 100 µM | GI50 (SNB-75 CNS) > 100 µM | GI50 (SW-620 colon) > 100 µM | GI50 (T-47D breast) > 100 µM | GI50 (SF-539 CNS) > 100 µM | GI50 (HCT-116 colon) > 100 µM | GI50 (SNB-19 CNS) > 100 µM | GI50 (NCI-H23 lung) > 100 µM | GI50 (NCI/ADR-RES ovarian) > 100 µM | GI50 (SR leukemia) 7.53 µM | GI50 (KM12 colon) > 100 µM | GI50 (LOX IMVI melanoma) > 100 µM | GI50 (K-562 leukemia) > 100 µM | GI50 (HCC-2998 colon) > 100 µM | GI50 (SK-OV-3 ovarian) > 100 µM | GI50 (A549 NSCLC) > 100 µM | GI50 (CCRF-CEM leukemia) > 100 µM | GI50 (SK-MEL-2 melanoma) > 100 µM | GI50 (OVCAR-8 ovarian) > 100 µM | GI50 (SN12C renal) > 100 µM | GI50 (HOP-92 NSCLC) > 100 µM | GI50 (HT29 colon) > 100 µM | GI50 (NCI-H460 lung) 6.27 µM | GI50 (SK-MEL-28 melanoma) 63.8 µM | GI50 (UACC-62 melanoma) 68.1 µM | GI50 (U251 CNS) 30.1 µM | GI50 (OVCAR-4 ovarian) > 100 µM | GI50 (A498 renal) > 100 µM | GI50 (OVCAR-5 ovarian) > 100 µM | GI50 (NCI-H226 lung) > 100 µM | GI50 (HOP-62 NSCLC) > 100 µM | GI50 (HS 578T breast) > 100 µM | GI50 (786-0 renal) > 100 µM | GI50 (COLO 205 colon) > 100 µM | GI50 (DU-145 prostate) > 100 µM | GI50 (NCI-H522 lung) > 100 µM | GI50 (HL-60(TB) leukemia) > 100 µM | GI50 (SF-268 CNS) 29.9 µM | GI50 (SK-MEL-5 melanoma) 71.4 µM | GI50 (EKVX NSCLC) > 100 µM | GI50 (PC-3 prostate) > 100 µM | GI50 (MOLT-4 leukemia) > 100 µM | GI50 (OVCAR-3 ovarian) 6.35 µM | GI50 (MDA-MB-435) > 100 µM
